According to the kinase profiling compilation of Christmann-Franck et al. (2016):

Tests used:
Test in all cases: radiometric filter-binding kinase assay, Kinase HotSpot
Conditions in all cases: compound 0.5 µM; ATP 10 µM
[1] = biological target: AKT2 (human) (UniProt P31751)
[2] = biological target: AKT3 (human) (UniProt Q9Y243)
[3] = biological target: CAMK1G (human) (UniProt Q96NX5)
[4] = biological target: CDK3 CCNE1 (human) (UniProt Q00526+P24864)
[5] = biological target: CDK5 CDK5R1 p25 (human) (UniProt Q00535+Q15078)
[6] = biological target: CDK7 CCNH MNAT1 (human) (UniProt P50613+P51948+P51946)
[7] = biological target: CDK9 CCNT1 (human) (UniProt P50750+O60563)
[8] = biological target: CSF1R (human) (UniProt P07333)
[9] = biological target: EPHA5 (human) (UniProt P54756)
[10] = biological target: EPHB1 (human) (UniProt P54762)
[11] = biological target: EPHB3 (human) (UniProt P54753)
[12] = biological target: FGFR3 (human) (UniProt P22607)
[13] = biological target: GRK6 (human) (UniProt P43250)
[14] = biological target: GRK7 (human) (UniProt Q8WTQ7)
[15] = biological target: GSK3A (human) (UniProt P49840)
[16] = biological target: HIPK2 (human) (UniProt Q9H2X6)
[17] = biological target: MAP3K10 (human) (UniProt Q02779)
[18] = biological target: MAP3K11 (human) (UniProt Q16584)
[19] = biological target: MAP3K3 (human) (UniProt Q99759)
[20] = biological target: MAP3K5 (human) (UniProt Q99683)
[21] = biological target: MAP4K5 (human) (UniProt Q9Y4K4)
[22] = biological target: MAPK8 (human) (UniProt P45983)
[23] = biological target: MARK2 (human) (UniProt Q7KZI7)
[24] = biological target: MET (human) (UniProt P08581)
[25] = biological target: MINK1 (human) (UniProt Q8N4C8)
[26] = biological target: MUSK (human) (UniProt O15146)
[27] = biological target: NEK6 (human) (UniProt Q9HC98)
[28] = biological target: NLK (human) (UniProt Q9UBE8)
[29] = biological target: NUAK1 (human) (UniProt O60285)
[30] = biological target: PKN1 (human) (UniProt Q16512)
[31] = biological target: PLK2 (human) (UniProt Q9NYY3)
[32] = biological target: PRKCD (human) (UniProt Q05655)
[33] = biological target: PRKG2 (human) (UniProt Q13237)
[34] = biological target: ROCK2 (human) (UniProt O75116)
[35] = biological target: ROS1 (human) (UniProt P08922)
[36] = biological target: RPS6KA2 KD1 KD2 (human) (UniProt Q15349)
[37] = biological target: RPS6KA6 KD1 KD2 (human) (UniProt Q9UK32)
[38] = biological target: RPS6KB1 (human) (UniProt P23443)
[39] = biological target: SRPK1 (human) (UniProt Q96SB4)
[40] = biological target: TEC (human) (UniProt P42680)
[41] = biological target: TSSK2 (human) (UniProt Q96PF2)
Chain of TSSK2 (human) (Q96PF2 whole entry, looked up): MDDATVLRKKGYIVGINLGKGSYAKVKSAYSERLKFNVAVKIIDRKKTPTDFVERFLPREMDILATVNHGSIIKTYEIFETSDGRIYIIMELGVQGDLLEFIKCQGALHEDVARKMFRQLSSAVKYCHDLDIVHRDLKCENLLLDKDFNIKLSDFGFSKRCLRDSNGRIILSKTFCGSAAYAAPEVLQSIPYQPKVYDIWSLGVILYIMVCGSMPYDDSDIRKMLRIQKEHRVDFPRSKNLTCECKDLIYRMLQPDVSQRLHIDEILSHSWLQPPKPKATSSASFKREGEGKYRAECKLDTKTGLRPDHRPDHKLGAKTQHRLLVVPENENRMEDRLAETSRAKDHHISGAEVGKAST

Chain of CSF1R (human) (P07333 whole entry, looked up): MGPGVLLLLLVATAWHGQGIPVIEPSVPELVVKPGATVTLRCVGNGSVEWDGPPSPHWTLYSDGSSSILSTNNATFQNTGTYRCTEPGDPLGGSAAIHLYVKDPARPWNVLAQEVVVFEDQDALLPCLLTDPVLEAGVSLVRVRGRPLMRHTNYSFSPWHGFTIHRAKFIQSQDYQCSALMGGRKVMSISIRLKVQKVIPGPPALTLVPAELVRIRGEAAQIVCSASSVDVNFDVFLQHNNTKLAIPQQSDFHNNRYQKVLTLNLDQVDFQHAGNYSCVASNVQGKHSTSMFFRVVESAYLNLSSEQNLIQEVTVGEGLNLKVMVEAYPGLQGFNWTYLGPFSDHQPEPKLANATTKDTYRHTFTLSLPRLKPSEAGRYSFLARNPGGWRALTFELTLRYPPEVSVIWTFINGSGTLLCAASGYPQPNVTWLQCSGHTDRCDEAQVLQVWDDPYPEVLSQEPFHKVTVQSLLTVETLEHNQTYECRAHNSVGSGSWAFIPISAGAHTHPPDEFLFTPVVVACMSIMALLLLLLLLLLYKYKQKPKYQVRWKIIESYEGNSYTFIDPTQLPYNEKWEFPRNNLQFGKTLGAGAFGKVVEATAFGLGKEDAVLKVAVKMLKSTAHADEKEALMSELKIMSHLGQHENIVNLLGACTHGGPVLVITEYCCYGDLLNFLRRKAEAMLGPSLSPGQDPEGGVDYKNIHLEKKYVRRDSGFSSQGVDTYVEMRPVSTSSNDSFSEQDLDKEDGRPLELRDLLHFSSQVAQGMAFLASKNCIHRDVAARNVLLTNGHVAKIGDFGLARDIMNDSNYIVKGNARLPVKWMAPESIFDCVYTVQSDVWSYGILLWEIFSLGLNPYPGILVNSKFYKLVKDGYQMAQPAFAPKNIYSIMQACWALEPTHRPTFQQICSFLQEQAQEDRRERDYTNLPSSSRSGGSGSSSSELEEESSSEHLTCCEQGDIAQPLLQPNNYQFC
Chain of TEC (human) (P42680 whole entry, looked up): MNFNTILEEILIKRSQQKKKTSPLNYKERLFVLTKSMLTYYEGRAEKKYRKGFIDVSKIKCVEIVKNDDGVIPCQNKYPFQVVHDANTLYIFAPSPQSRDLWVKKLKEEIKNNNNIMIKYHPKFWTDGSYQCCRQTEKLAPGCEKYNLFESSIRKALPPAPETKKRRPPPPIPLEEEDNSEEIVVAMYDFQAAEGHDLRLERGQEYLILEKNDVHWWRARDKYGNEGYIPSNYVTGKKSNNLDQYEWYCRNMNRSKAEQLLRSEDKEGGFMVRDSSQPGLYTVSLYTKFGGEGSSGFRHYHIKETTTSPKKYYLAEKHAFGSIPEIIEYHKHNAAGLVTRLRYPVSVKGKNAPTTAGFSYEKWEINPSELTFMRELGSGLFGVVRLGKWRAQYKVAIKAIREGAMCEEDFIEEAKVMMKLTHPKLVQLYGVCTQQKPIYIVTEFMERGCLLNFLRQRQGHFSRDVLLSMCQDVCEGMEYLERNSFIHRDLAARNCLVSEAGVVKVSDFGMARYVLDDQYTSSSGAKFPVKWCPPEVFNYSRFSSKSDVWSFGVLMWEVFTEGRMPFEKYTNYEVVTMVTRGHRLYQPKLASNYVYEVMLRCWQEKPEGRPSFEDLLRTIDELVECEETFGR
Chain of NLK (human) (Q9UBE8 whole entry, looked up): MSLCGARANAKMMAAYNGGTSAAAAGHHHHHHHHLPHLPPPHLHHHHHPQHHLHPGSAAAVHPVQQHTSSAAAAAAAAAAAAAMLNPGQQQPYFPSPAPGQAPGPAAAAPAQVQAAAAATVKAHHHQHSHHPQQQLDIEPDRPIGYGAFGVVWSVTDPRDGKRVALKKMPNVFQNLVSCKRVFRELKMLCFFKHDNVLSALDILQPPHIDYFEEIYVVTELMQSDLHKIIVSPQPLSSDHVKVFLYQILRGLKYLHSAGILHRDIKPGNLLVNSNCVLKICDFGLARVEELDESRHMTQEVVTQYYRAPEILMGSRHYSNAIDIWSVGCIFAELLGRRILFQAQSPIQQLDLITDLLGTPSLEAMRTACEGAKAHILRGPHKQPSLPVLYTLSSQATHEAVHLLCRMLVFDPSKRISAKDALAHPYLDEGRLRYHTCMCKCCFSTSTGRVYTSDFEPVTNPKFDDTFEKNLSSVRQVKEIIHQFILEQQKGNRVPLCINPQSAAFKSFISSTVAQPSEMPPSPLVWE
Chain of GRK7 (human) (Q8WTQ7 whole entry, looked up): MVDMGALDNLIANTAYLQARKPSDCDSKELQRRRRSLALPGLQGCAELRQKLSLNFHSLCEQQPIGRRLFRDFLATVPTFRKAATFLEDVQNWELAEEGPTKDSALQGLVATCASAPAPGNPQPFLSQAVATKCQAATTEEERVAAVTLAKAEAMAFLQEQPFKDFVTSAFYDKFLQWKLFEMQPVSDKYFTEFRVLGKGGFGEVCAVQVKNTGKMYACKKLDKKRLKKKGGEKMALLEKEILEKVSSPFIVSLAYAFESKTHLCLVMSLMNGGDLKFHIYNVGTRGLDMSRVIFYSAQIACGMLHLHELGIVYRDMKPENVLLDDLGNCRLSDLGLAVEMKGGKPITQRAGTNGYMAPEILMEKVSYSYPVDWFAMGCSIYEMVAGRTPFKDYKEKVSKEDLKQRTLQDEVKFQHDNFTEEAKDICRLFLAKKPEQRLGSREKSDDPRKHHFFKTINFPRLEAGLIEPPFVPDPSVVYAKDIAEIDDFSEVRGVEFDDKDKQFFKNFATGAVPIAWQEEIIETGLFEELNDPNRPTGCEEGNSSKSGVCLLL
Chain of RPS6KB1 (human) (P23443 whole entry, looked up): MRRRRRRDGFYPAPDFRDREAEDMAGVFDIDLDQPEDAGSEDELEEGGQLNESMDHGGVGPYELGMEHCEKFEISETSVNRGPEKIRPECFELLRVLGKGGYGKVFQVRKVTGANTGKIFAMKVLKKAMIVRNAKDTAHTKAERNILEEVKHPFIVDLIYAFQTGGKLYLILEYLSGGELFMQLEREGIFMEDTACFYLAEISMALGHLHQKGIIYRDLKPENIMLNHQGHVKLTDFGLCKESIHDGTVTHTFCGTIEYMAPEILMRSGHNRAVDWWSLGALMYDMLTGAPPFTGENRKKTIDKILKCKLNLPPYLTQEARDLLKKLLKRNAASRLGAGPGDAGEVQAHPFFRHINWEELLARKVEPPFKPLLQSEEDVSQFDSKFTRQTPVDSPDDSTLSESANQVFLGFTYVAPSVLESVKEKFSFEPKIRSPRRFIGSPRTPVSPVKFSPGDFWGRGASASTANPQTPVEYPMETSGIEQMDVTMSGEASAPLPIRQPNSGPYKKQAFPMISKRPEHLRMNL
Chain of PRKG2 (human) (Q13237 whole entry, looked up): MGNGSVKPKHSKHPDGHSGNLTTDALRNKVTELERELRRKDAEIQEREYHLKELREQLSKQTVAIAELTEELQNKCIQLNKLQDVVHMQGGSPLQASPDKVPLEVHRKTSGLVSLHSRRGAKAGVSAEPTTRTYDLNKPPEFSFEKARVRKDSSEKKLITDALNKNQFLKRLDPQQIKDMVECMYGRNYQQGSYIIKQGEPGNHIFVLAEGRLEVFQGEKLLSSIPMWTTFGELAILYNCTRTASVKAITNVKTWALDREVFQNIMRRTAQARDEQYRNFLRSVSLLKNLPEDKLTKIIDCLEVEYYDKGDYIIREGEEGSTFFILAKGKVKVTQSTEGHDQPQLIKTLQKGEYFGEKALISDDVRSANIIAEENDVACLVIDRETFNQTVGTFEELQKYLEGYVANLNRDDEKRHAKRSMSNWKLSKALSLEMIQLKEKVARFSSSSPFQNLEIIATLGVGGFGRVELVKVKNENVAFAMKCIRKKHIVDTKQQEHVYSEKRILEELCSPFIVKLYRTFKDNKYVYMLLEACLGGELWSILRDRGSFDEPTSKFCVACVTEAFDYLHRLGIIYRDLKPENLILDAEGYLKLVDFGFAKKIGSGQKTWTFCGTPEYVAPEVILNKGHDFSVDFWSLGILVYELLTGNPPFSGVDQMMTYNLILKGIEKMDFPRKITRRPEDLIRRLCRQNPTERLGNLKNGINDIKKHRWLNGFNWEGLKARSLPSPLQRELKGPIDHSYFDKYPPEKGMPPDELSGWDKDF
Chain of PLK2 (human) (Q9NYY3 whole entry, looked up): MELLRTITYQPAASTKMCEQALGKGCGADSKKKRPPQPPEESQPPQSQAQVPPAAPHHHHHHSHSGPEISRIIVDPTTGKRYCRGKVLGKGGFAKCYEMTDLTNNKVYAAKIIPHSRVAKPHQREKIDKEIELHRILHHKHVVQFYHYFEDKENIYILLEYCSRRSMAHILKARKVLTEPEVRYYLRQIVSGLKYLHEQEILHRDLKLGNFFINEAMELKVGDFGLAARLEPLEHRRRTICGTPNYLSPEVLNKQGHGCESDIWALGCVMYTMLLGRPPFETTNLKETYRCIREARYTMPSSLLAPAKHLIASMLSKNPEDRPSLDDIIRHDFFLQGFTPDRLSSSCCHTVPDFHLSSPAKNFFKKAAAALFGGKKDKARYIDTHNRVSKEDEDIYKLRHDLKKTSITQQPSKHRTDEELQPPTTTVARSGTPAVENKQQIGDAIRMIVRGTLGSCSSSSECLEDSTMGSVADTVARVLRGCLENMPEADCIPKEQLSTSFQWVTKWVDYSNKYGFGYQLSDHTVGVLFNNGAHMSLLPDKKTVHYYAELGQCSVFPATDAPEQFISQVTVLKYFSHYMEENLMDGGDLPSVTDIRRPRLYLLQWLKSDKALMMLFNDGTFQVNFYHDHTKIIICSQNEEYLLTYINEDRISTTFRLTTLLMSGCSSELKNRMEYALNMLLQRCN

**Q.** What does the source list for `Cc1cc2ncc(-c3ccccc3)nc2cc1C`?
**A.** residual activity [1]: 99.7%; residual activity [2]: 91.8%; residual activity [3]: 101%; residual activity [4]: 96.7%; residual activity [5]: 96.6%; residual activity [6]: 98.5%; residual activity [7]: 93.9%; residual activity [8]: 82.1%; residual activity [9]: 96.1%; residual activity [10]: 91.1%; residual activity [11]: 98.4%; residual activity [12]: 98%; residual activity [13]: 103%; residual activity [14]: 102%; residual activity [15]: 104%; residual activity [16]: 97%; residual activity [17]: 97.8%; residual activity [18]: 97.3%; residual activity [19]: 103%; residual activity [20]: 107%; residual activity [21]: 89.3%; residual activity [22]: 101%; residual activity [23]: 84.5%; residual activity [24]: 95.1%; residual activity [25]: 91.8%; residual activity [26]: 102%; residual activity [27]: 101%; residual activity [28]: 92.8%; residual activity [29]: 92.3%; residual activity [30]: 92.5%; residual activity [31]: 95%; residual activity [32]: 92.3%; residual activity [33]: 99.3%; residual activity [34]: 88.1%; residual activity [35]: 100%; residual activity [36]: 92.5%; residual activity [37]: 98.2%; residual activity [38]: 88.2%; residual activity [39]: 103%; residual activity [40]: 98.1%; residual activity [41]: 87.5%

**Q.** With `O=C1Cc2c([nH]c3ccc([N+](=O)[O-])cc23)-c2ccccc2N1` as the compound, how does the residual activity [1] read?
**A.** Its residual activity is 101%.

**Q.** What about the residual activity [2] of the same compound?
**A.** The residual activity was 94.1%.

**Q.** And the residual activity [3]?
**A.** The residual activity was 96%.

**Q.** And the residual activity [4]?
**A.** The residual activity was 56.8%.

**Q.** And the residual activity [5]?
**A.** The residual activity was 10.5%.

**Q.** What about the residual activity [6] of the same compound?
**A.** Its residual activity is 99.9%.

**Q.** What about the residual activity [7] of the same compound?
**A.** Its residual activity is 22.6%.

**Q.** And the residual activity [8]?
**A.** The residual activity was 51%.

**Q.** What about the residual activity [9] of the same compound?
**A.** Its residual activity is 98.6%.

**Q.** What about the residual activity [10] of the same compound?
**A.** Its residual activity is 112%.

**Q.** What about the residual activity [11] of the same compound?
**A.** The residual activity was 103%.

**Q.** And the residual activity [12]?
**A.** The residual activity was 90.5%.

**Q.** What about the residual activity [13] of the same compound?
**A.** Its residual activity is 93.8%.

**Q.** And the residual activity [14]?
**A.** The residual activity was 99%.

**Q.** And the residual activity [15]?
**A.** Its residual activity is 0.971%.

**Q.** What about the residual activity [16] of the same compound?
**A.** Its residual activity is 110%.

**Q.** And the residual activity [17]?
**A.** The residual activity was 48.6%.

**Q.** And the residual activity [18]?
**A.** Its residual activity is 11.8%.

**Q.** What about the residual activity [19] of the same compound?
**A.** Its residual activity is 100%.

**Q.** And the residual activity [20]?
**A.** Its residual activity is 101%.

**Q.** What about the residual activity [21] of the same compound?
**A.** The residual activity was 15.9%.

**Q.** What about the residual activity [22] of the same compound?
**A.** The residual activity was 99.6%.

**Q.** What about the residual activity [23] of the same compound?
**A.** The residual activity was 52.4%.

**Q.** What about the residual activity [24] of the same compound?
**A.** The residual activity was 117%.

**Q.** And the residual activity [25]?
**A.** The residual activity was 20.4%.

**Q.** What about the residual activity [26] of the same compound?
**A.** Its residual activity is 68.5%.

**Q.** And the residual activity [27]?
**A.** The residual activity was 97.1%.

**Q.** What about the residual activity [28] of the same compound?
**A.** Its residual activity is 95.5%.

**Q.** What about the residual activity [29] of the same compound?
**A.** The residual activity was 12%.

**Q.** What about the residual activity [30] of the same compound?
**A.** Its residual activity is 88.2%.

**Q.** What about the residual activity [31] of the same compound?
**A.** The residual activity was 106%.

**Q.** And the residual activity [32]?
**A.** Its residual activity is 79.8%.

**Q.** What about the residual activity [33] of the same compound?
**A.** Its residual activity is 97.6%.

**Q.** What about the residual activity [34] of the same compound?
**A.** Its residual activity is 82%.

**Q.** And the residual activity [35]?
**A.** The residual activity was 80.2%.

**Q.** And the residual activity [36]?
**A.** The residual activity was 62%.

**Q.** What about the residual activity [37] of the same compound?
**A.** Its residual activity is 38%.

**Q.** And the residual activity [38]?
**A.** The residual activity was 103%.

**Q.** And the residual activity [39]?
**A.** Its residual activity is 100%.

**Q.** What about the residual activity [40] of the same compound?
**A.** The residual activity was 137%.

**Q.** What about the residual activity [41] of the same compound?
**A.** Its residual activity is 88.3%.
